Measured values as given in ChEMBL document CHEMBL4665812, “Targeting Her2-insYVMA with Covalent Inhibitors-A Focused Compound Screening and Structure-Based Design Approach” (J Med Chem, 2020).
≈ marks a conversion by molar mass, not a printed value.

Columns and labels:
[1] = Apparent permeability across apical side to basolateral side in human Caco-2 cells at 5 uM after 2 hrs by transwell assay; type: ADME, cell-based; settings: read-out: permeability
[2] = Intrinsic clearance in mouse liver microsomes at 3 uM measured up to 60 mins by LC-MS analysis; type: ADME, Microsome; settings: read-out: CLH
[3] = Intrinsic clearance in human liver microsomes at 3 uM measured up to 50 mins by LC-MS analysis; type: ADME, Microsome; settings: read-out: CLH
[4] = Stability of compound in mouse plasma assessed as parent compound remaining at 5 uM measured for 1 hr by LC-MS analysis; type: ADME, cell-free; settings: for remaining at 1 h, 5 µM: read-out: Stabilty
[5] = Stability of compound in human plasma assessed as parent compound remaining at 5 uM measured for 1 hr by LC-MS analysis; type: ADME, cell-free; settings: read-out: Stabilty
[6] = Kinetic solubility of compound in HEPES buffer a pH 7.4 at 500 uM after 90 mins; type: physicochemical; settings: read-out: Kinetic_solubility
[7] = Solubility of compound in aqueous buffer at pH 7.4 after 120 mins by turbidometric assay; type: physicochemical
[8] = Inhibition of HER2-A775_G776insYVMA mutant (unknown origin) expressed in mouse BaF3 cells assessed as reduction in HER2 induced cell viability after 96 hrs by CellTiter-Glo assay; type: cell-based; settings: BaF3, 96 h
cells = type: cell-based; settings: Homo sapiens, NCI-H1781, 96 h
Description: Inhibition of HER2-G776delinsVC mutant (unknown origin) expressed in human H1781 cells assessed as reduction in HER2 induced cell viability after 96 hrs by CellTiter-Glo assay

[9] = Apparent permeability across basolateral side to apical side in human Caco-2 cells at 5 uM after 2 hrs by transwell assay; type: ADME, cell-based; settings: read-out: permeability
[10] = biological target: Receptor tyrosine-protein kinase erbB-2 (Homo sapiens, UniProt P04626); assay: Inhibition of C-terminal His6-tagged HER2 (703 to 1029 residues) (unknown origin) expressed in Sf9 insect cells using TK as substrate preincubated for 30 mins followed by substrate addition and measured after 60 mins in presence of XL665-labeled streptavidin by HTRF assay
Chain of Receptor tyrosine-protein kinase erbB-2 (P04626 whole entry, the tested form may be a part): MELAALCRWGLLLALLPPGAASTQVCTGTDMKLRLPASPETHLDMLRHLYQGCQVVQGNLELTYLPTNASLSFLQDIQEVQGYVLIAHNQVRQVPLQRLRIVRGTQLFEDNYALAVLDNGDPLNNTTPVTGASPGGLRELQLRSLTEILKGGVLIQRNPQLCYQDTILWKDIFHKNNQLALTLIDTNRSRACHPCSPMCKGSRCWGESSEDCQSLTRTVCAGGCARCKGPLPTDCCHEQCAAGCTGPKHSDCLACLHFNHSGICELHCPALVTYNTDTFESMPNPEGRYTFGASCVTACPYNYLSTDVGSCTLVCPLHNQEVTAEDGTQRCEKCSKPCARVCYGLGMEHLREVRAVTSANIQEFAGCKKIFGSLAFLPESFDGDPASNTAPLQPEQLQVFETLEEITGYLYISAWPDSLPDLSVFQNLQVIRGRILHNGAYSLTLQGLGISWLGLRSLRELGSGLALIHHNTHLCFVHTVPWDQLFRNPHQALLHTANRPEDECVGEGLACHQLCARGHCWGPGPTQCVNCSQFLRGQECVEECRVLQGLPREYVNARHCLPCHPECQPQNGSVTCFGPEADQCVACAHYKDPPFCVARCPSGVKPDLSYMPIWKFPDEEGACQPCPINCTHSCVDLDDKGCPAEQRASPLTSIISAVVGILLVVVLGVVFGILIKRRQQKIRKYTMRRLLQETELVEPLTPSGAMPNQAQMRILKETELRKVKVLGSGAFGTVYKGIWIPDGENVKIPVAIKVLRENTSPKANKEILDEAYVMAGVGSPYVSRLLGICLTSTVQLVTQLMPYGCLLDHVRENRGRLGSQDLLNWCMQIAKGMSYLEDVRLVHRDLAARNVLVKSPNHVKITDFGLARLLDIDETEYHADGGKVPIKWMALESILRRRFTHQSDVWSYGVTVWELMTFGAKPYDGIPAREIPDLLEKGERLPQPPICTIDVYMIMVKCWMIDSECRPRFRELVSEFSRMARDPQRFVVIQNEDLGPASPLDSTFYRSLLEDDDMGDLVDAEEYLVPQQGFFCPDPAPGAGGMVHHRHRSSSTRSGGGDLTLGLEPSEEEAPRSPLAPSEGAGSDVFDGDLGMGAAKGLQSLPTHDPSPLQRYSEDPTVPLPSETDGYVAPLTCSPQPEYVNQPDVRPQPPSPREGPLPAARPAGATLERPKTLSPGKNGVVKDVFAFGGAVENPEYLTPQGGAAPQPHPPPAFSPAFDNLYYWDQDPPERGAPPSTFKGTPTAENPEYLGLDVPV

[11] = Ratio of apparent permeability across basolateral to apical over apical to basolateral side in human Caco2 cells at 5 uM after 2 hrs by transwell assay; type: ADME, cell-based; settings: Caco-2
[12] = Inhibition of C-terminal His6-tagged HER2-A775_G776insYVMA mutant (703 to 1029 residues) (unknown origin) expressed in Sf9 insect cells using TK as substrate measured up to 2 to 40 mins by fluorescence assay; design: species or system Homo sapiens

IC50 (cells) [nM]	IC50 [10] [nM]	SMILES	IC50 [8] [nM]	other results
3940		CS(=O)(=O)CCNCc1ccc(-c2ccc3ncnc(Nc4ccc(OCc5cccc(F)c5)c(Cl)c4)c3c2)o1 [LAPATINIB]	2760	Papp A→B at 2 h, 5 µM [1]: 0.7 ×10⁻⁶ cm/s; microsomal CLint at 3 µM [2]: 73.7 µL/min/mg; microsomal CLint at 3 µM [3]: 16.7 µL/min/mg; remaining at 1 h, 5 µM [4]: 95.9%; remaining at 1 h, 5 µM [5]: 99.7%; solubility kinetic at 1.5 h, 500 µM [6]: 4.1 µM (≈ 2.38 µg/mL); solubility kinetic at 2 h [7]: 3 µM (≈ 1.74 µg/mL); Papp B→A at 2 h, 5 µM [9]: 0.2 ×10⁻⁶ cm/s
2630	4.5	C=CC(=O)Nc1cccc(-c2c(-c3ccc(N4CCN(C)CC4)cc3)[nH]c3ncnc(Nc4ccc(OC(c5ccccc5)c5ccccc5)cc4)c23)c1	> 3000	
> 3000	29	C=CC(=O)Nc1cccc(-c2c[nH]c3ncnc(Nc4ccc(Cc5ccccc5)cc4)c23)c1	754	
988	321	C=CC(=O)Nc1cccc(-c2c(-c3ccc(N4CCN(C)CC4)cc3)[nH]c3ncn(CC(C)C)c(=O)c23)c1	2420	
417	14	C=CC(=O)Nc1cccc(-c2c(-c3ccc(N4CCN(C)CC4)cc3)[nH]c3ncnc(OCC)c23)c1	327	
334	13	C=CC(=O)Nc1cccc(-c2c(-c3ccc(N4CCN(C)CC4)cc3)[nH]c3ncnc(Nc4ccc(OC(=O)C(c5ccccc5)N5Cc6ccccc6C5=O)cc4)c23)c1 (stereo not drawn)	390	
> 3000	188	C=CC(=O)Nc1cc(-c2c[nH]c3ncnc(Nc4ccc5[nH]c(Cc6ccccc6)nc5c4)c23)ccc1OCCO	> 3000	
> 3000	13	C=CC(=O)Nc1cccc(-c2c[nH]c3ncnc(Nc4ccc(Oc5ccccc5)cc4)c23)c1	> 3000	
1180	21	C=CC(=O)Nc1cccc(-c2c(-c3ccc(N4CCN(C)CC4)cc3)[nH]c3ncnc(OC(C)C)c23)c1	1440	
105	12	C=CC(=O)N1CCC(Oc2cc3c(Nc4ccc(Cl)c(Cl)c4F)ncnc3cc2OC)CC1 [POZIOTINIB]	< 14	efflux ratio at 2 h, 5 µM [11]: 0.36; Papp A→B at 2 h, 5 µM [1]: 21.1 ×10⁻⁶ cm/s; microsomal CLint at 3 µM [2]: 35.4 µL/min/mg; microsomal CLint at 3 µM [3]: 22 µL/min/mg; Stabilty ([4]; 1 h, 5 µM): 120.4%; remaining at 1 h, 5 µM [5]: 86.9%; solubility kinetic at 1.5 h, 500 µM [6]: 39.3 µM (≈ 19.3 µg/mL); Papp B→A at 2 h, 5 µM [9]: 7.5 ×10⁻⁶ cm/s
1610	15	C=CC(=O)Nc1cc(-c2c[nH]c3ncnc(Nc4ccc(CN5C(=O)c6ccccc6C5=O)cc4)c23)ccc1OCCO	675	
357	50	C=CC(=O)Nc1cccc(-c2c(-c3ccc(N4CCN(C)CC4)cc3)[nH]c3ncnc(OC)c23)c1	910	
1200	23	C=CC(=O)Nc1cc(-c2c[nH]c3ncnc(Nc4ccc(CN5C(=O)c6ccccc6C5=O)cc4)c23)ccc1OCCN(C)C	621	
193	3.5	C=CC(=O)Nc1cccc(-c2c[nH]c3ncnc(Nc4ccc5[nH]c(Cc6ccccc6)nc5c4)c23)c1	349	
305	14	C=CC(=O)Nc1cccc(-c2c[nH]c3ncnc(Nc4ccc(OCc5cccc(F)c5)c(Cl)c4)c23)c1	135	
549	14	C=CC(=O)Nc1cc(-c2c[nH]c3ncnc(Nc4ccc(OCc5ccccn5)c(Cl)c4)c23)ccc1OC(C)COC (stereo not drawn)	259	
2050	592	C=CC(=O)Nc1cccc(-c2c(-c3ccc(N4CCN(C)CC4)cc3)[nH]c3ncn(C(C)C)c(=O)c23)c1	3600	
490	55	C=CC(=O)Nc1cccc(-c2c(-c3ccc(N4CCN(C)CC4)cc3)[nH]c3ncnc(Nc4ccc(CN5C(=O)c6ccccc6C5=O)cc4)c23)c1	638	

IC50 (cells) [nM]	IC50 [10] [nM]	SMILES	IC50 [8] [nM]	other results
6390	26	C=CC(=O)Nc1cccc(-c2c[nH]c3ncnc(Nc4ccc(OC(c5ccccc5)c5ccccc5)cc4)c23)c1	497	
2340	84	C=CC(=O)Nc1cccc(-c2c(-c3ccc(N4CCN(C)CC4)cc3)[nH]c3ncn(CC)c(=O)c23)c1	2810	
3980		CC(C)(O)CC(=O)NCCn1ccc2ncnc(Nc3ccc(Oc4cccc(C(F)(F)F)c4)c(Cl)c3)c21 [TAK-285]	3220	
271	9.3	C=CC(=O)Nc1cc(-c2c[nH]c3ncnc(Nc4ccc(OCc5ccccn5)c(Cl)c4)c23)ccc1OCCCO	41	
699	43	C=CC(=O)Nc1cccc(-c2c(-c3ccc(N4CCN(C)CC4)cc3)[nH]c3ncnc(Nc4ccc(NC(=O)C(c5ccccc5)N5Cc6ccccc6C5=O)cc4)c23)c1 (stereo not drawn)	2680	
148		CCOc1cc2ncc(C#N)c(Nc3ccc(OCc4ccccn4)c(Cl)c3)c2cc1NC(=O)/C=C/CN(C)C [NERATINIB]	< 14	Papp A→B at 2 h, 5 µM [1]: 0.09 ×10⁻⁶ cm/s; microsomal CLint at 3 µM [2]: 126 µL/min/mg; microsomal CLint at 3 µM [3]: 42 µL/min/mg; remaining at 1 h, 5 µM [4]: 97.4%; remaining at 1 h, 5 µM [5]: 80.7%; solubility kinetic at 1.5 h, 500 µM [6]: 1.2 µM (≈ 0.668 µg/mL); solubility kinetic at 2 h [7]: > 10 µM; Ki [12]: 6.3 nM; Papp B→A at 2 h, 5 µM [9]: 0.4 ×10⁻⁶ cm/s
2310	26	C=CC(=O)Nc1cccc(-c2c(-c3ccc(N4CCN(C)CC4)cc3)[nH]c3ncnc(OCC(C)C)c23)c1	1120	
165	3.9	C=CC(=O)Nc1cccc(-c2c(-c3ccc(N4CCN(C)CC4)cc3)[nH]c3ncnc(Nc4ccc(O)cc4)c23)c1	431	
		COc1cc2ncnc(Nc3ccc(F)c(Cl)c3)c2cc1OCCCN1CCOCC1 [GEFITINIB]	2880	
332	7.9	C=CC(=O)Nc1cccc(-c2c[nH]c3ncnc(Nc4ccc5c(ccn5Cc5ccccc5)c4)c23)c1	304	
264	12	C=CC(=O)Nc1cccc(-c2c(-c3ccc(N4CCN(C)CC4)cc3)[nH]c3ncnc(Nc4ccc(OCN5C(=O)c6ccccc6C5=O)cc4)c23)c1	411	
		CN(C)C/C=C/C(=O)Nc1cc2c(Nc3ccc(F)c(Cl)c3)ncnc2cc1O[C@H]1CCOC1 [AFATINIB]		Papp A→B at 2 h, 5 µM [1]: 2.38 ×10⁻⁶ cm/s; microsomal CLint at 3 µM [2]: 9.4 µL/min/mg; microsomal CLint at 3 µM [3]: 1.4 µL/min/mg; remaining at 1 h, 5 µM [4]: 101%; remaining at 1 h, 5 µM [5]: 96.5%; Papp B→A at 2 h, 5 µM [9]: 55.4 ×10⁻⁶ cm/s
252	14	C=CC(=O)Nc1cccc(-c2c(-c3ccc(N4CCN(C)CC4)cc3)[nH]c3ncnc(Nc4ccc(OCc5ccccn5)c(Cl)c4)c23)c1	285	
1230	146	C=CC(=O)Nc1cccc(-c2c(-c3ccc(N4CCN(C)CC4)cc3)[nH]c3ncn(C)c(=O)c23)c1	3300	
> 30000	95	C=CC(=O)Nc1cccc(-c2c(-c3ccc(N4CCN(C)CC4)cc3)[nH]c3ncnc(Nc4ccc(OCc5cccc(F)c5)c(Cl)c4)c23)c1	2220	
126	12	C=CC(=O)Nc1cccc(-c2c[nH]c3ncnc(Nc4ccc5c(cnn5Cc5ccccc5)c4)c23)c1	53	
383	4.5	C=CC(=O)Nc1cccc(-c2c[nH]c3ncnc(Nc4ccc(OCN5C(=O)c6ccccc6C5=O)cc4)c23)c1	562	
201	1.9	C=CC(=O)Nc1cc(-c2c[nH]c3ncnc(Nc4ccc(OCc5ccccn5)c(Cl)c4)c23)ccc1OCCO	84	

SMILES	IC50 (cells) [nM]	IC50 [10] [nM]	IC50 [8] [nM]	other results
C=CC(=O)Nc1cc(Nc2nccc(-c3cn(C)c4ccccc34)n2)c(OC)cc1N(C)CCN(C)C [OSIMERTINIB]	808		1390	
